Patent publication EP0652009A1, “Identification and use of protease inhibitors” (ELI LILLY AND COMPANY, priority 1993, dated 1995)

Biological target: Cathepsin D (Homo sapiens, UniProt P07339)
Experiment: Assay 3: cathepsin D inhibition activity (non-cellular assay, chromogenic substrate)
Type: biochemical
Set-up: Frozen human placental tissue was thawed and homogenized; from tissue; host or cells: human placenta
Conditions: cathepsin D from human placental tissue; for Ki: chromogenic substrate, pH 3.7, 37°C
Procedure: A third non-cellular assay for determining in vitro aspartyl protease inhibitory activity is generally described in Jupp, R.A. et al., (1990) Biochem. J., 265:871-878 and Rao et al., J. Med. Chem. (1993), in press. The assay is carried out by incubating a test compound with a suitable aspartyl protease, such as cathepsin D, in the presence of a chromogenic substrate. The inhibition constant, Ki, value may then be determined by quantifying the competitive inhibition of the hydrolysis of the chromogenic substrate. A variety of chromogenic substrates that are useful for assaying aspartyl protease activity are discussed in Dunn, et al., (1986) Biochem. J., 237:899-906. A preferred chromogenic substrate for a cathepsin D assay is disclosed in Scarborough, P.E. et al., Protein Science, (1993), 2:264-276.
Concentrations of substrate solutions and cleavage products may be verified using amino acid analysis. The enzyme preparations may be titrated with a tightly binding inhibitor to quantitate the active concentration of the enzyme. Enzyme concentrations are typically in the range of from 1-6 nM. Stock solutions of the test compound are prepared at concentrations ranging from 1.0 to 5.0 mg/mL, and then 50-100 µL portions of these stock solutions may be further diluted to a concentration in the range of 5 to 300 µM for rate determinations.
[…] Then, the test compounds are assayed over a concentration range of, for example, 5 to 300 µM for rate determinations.
A decrease in absorbance in the range of 284-324 nm may be monitored using a spectrophotometer. Absorbance readings are typically taken at various timepoints. The initial velocities are then plotted versus the initial substrate concentration. […] Estimates of Ki may then be determined using the Dixon construction. Dixon, M., (1953) Biochem J., 55:170-171.
If the ratio of the total active enzyme concentration to the estimated Ki value ([E]t/Ki) is less than 0.2, then the precise Ki value may be computed by using a non-linear curve fitting program based on the equation: v= Vmax [S]/[S] + Km (1 + [I]/Ki ) [formula] where v is the initial rate, [S] is the initial substrate concentration, [I] is the inhibitor concentration and Km and Ki are defined above. […] P.J.F., (1972) Biochem J., 127:321-333. This Assay is exemplfied in Assay 3.
The homogenate was centrifuged at 10,000 rpm for 30 minutes in a Sorvall GSA rotor. The supernatant was adjusted to pH 3.7 using 5.7N HCl and then sodium acetate was added to a concentration of 0.1M. The resultant mixture was incubated for 30 minutes at 0°C, resulting in the formation of a precipitate. This precipitate was removed by centrifugation (30 minutes, 10,000 rpm). The acidic supernatent was applied to a chromatography column (pepstatinyl agarose equilibrated with 0.1M sodium acetate, pH 3.5, 0.1% Brij 35, and 1M NaCl), washed until the OD₂₈₀ of the effluent returned to baseline, and then eluted with 50mM Tris-HCl, pH 8.6, 0.1% Brij 35, and 1M NaCl. The eluent was dialyzed against 10mM sodium phosphate, pH 7.0, 0.1% Brij 35, and 0.1M NaCl, and then applied to a 1 mL DEAE-Sephacel column equilibrated with the same buffer. Cathepsin D was recovered in the breakthrough fraction.
The enzyme mixture (125 µL buffer (0.1M sodium formate at pH 3.7), 1 µL of a 1mM solution of test compound, 4 µL of DMSO, enzyme and water to provide a total volume of 230 µL) was vortexed and prewarmed for four minutes before the addition of the chromogenic substrate. After warming, the enzyme mixture was added to 20 µL of a […] dilution of substrate solution. A control reaction mixture was similarly prepared without the addition of the test compound. The percent of inhibition of the initial rate of reaction in the presence of a particular concentration of test compound (i.e. 4 µM) may be determined for the test compound by monitoring the reaction mixture in parallel to the control reaction. […]

Sequence of Cathepsin D (P07339 169-412 limits assumed): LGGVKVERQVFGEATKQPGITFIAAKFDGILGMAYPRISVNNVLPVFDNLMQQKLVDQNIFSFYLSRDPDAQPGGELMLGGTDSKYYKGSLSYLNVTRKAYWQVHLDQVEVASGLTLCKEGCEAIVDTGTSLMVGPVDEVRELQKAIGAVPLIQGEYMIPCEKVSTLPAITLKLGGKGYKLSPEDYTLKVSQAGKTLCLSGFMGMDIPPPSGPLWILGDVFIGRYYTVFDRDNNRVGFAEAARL
Sequence of Cathepsin D (P07339 65-162 limits assumed): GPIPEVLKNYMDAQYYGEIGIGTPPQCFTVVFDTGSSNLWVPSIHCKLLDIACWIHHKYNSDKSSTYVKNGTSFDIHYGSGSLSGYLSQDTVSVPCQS

| Structure (SMILES) | % inhibition at 4µ M (4 µM test compound, inhibition of initial rate relative to control) [%] | Ki [nM] |
| --- | --- | --- |
| Cc1ccc(C(=O)C2NCCc3ccccc32)cc1C(=O)N[C@@H](Cc1ccccc1)[C@H](O)CN1C[C@H]2CCCC[C@H]2C[C@H]1C(=O)NC(C)(C)C (relative stereo) [Example 30, [3S-(3R*,4aR*,8aR*,2'S*,3'R*)]-2-[2'-Hydroxy-3'-phenylmethyl-4'-aza-5'-oxo-5'-(3''-[1''',2''',3''',4'''-tetrahydroisoquinolin-1'''-ylcarbonyl]-6''-methyl)phenyl]pentyl-decahydroisoquinoline-3-N-t-butylcarboxamide] | 28 | – |
| Cc1cccc2ccc(C(=O)N[C@@H](CC(N)=O)C(=O)N[C@@H](Cc3ccccc3)[C@H](O)Cc3ccccc3C(=O)NC(C)(C)C)nc12 [Example 9, [1S-(1R*,4R*,5S*)]-N-(1-(2-Amino-2-oxoethyl)-2-oxo-3-aza-4-phenylmethyl-5-hydroxy-6-(2-(1-t-butylamino-1-oxomethyl)phenyl)hexyl)-8-methylquinolin-2-yl carboxamide] | – | 820 |
| CC(C)C(NC(=O)C(Cc1cccc2ccccc12)NC(=O)OC(C)(C)C)C(=O)NC(Cc1ccccc1)C(O)Cc1ccccc1C(=O)NC(C)(C)C (stereo not drawn) [Example 23, [2R-(2R*,3S*,6S*,9S*)]-N-t-Butyl-2-[2-hydroxy-3-phenylmethyl-4,7-diaza-5,8-dioxo-6-(1-methylethyl)-9-N(t-butoxycarbonyl)amino-10-naphth-1-yl]decyl benzamide] | – | 73 |
| CC(C)C(NC(=O)C(Cc1cccc2ccccc12)NC(=O)OC(C)(C)C)C(=O)NC(Cc1ccccc1)C(O)Cc1ccccc1C(=O)NC(C)(C)C (stereo not drawn) [Example 24, [2R-(2R*,3S*,6S*,9R*)]-N-t-Butyl-2-[2-hydroxy-3-phenylmethyl-4,7-diaza-5,8-dioxo-6-(1-methylethyl)-9-N(t-butoxycarbonyl)amino-10-naphth-1-yl]decyl benzamide] | – | 42 |
